{
  "source": "paper PMC4918035",
  "about": "“A human and animal model-based approach to investigating the anti-inflammatory profile and potential of the 5-HT2B receptor antagonist AM1030” (Journal of Inflammation (London, England), 2016)",
  "origin": "cited, not measured here",
  "molecular_target": "T1, 5-HT2B receptor (Homo sapiens, UniProt P41595)",
  "T1 construct": "gene HTR2B",
  "T1 sequence (P41595 whole entry)": "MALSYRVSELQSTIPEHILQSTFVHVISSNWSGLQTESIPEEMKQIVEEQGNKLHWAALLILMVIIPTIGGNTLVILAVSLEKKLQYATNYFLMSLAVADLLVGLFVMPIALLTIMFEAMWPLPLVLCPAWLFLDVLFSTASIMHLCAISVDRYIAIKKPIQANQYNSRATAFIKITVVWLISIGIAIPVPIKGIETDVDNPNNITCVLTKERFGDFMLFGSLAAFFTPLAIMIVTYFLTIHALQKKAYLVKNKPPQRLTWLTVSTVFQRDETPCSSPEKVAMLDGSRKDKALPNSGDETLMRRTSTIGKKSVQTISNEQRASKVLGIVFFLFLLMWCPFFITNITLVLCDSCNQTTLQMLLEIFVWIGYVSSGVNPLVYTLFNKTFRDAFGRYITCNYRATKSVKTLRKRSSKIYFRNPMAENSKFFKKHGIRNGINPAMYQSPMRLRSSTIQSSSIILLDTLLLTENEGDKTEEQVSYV",
  "test": "receptor binding (Ki) and functional inhibition (IC50 […]); assay details not described",
  "data": [
    {"substance": "AM1030", "values": [
      {"measurement": "Ki", "value": 330, "unit": "nM"}
    ]}
  ]
}
